Assay results taken from patent US10703764B2, “Benzopiperazine compositions as BET bromodomain inhibitors” (FORMA Therapeutics, Inc., priority 2013, dated 2020).

Tests used:
MV4-11 cells = assay: Oncology cell growth assay (3-day proliferation, CellTiter-Glo); format: cell-based; settings: Homo sapiens, MV4-11, 72 h, AML cell line MV4-11, 72 hours, compounds grouped by IC50 range, read-out: MV4-11 IC50 (inhibition of proliferation, gIC50)
Summary of the method: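 72 h, 37° C, 5% CO2; MV4-11, 3000 cells/well, RPMI 1640 + 10% FBS. Compound final 10, 3.3, 1.1, 0.37, 0.12, 0.041, 0.013, 0.0045 μM. Readout CellTiter-Glo luminescence; gIC50 by 4-parameter logistic fit, normalised to DMSO and no-cell background.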

BRD4 BD1 = target: T1, BRD4 BD1 (Homo sapiens, UniProt O60885); assay: AlphaScreen binding assay, BRD4 Bromodomain 1
T1 construct: made in house
Summary of the method: (§1)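 An AlphaScreen competition format was used with His-BRD4 BD1 or BD2 and biotin-H4 K5/8/12/16-acetyl peptide, each at matched final levels of 50 nM (BD1) or 100 nM (BD2). Incubation in HEPES/NaCl buffer with 0.1% BSA and 0.01% Triton X-100 ran ≥1 h before IC50 determination.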

BRD4 BD2 = target: T2, BRD4 BD2 (Homo sapiens, UniProt O60885); assay: AlphaScreen binding assay, BRD4 Bromodomain 2
T2 construct: made in house
Summary of the method: as §1

| SMILES | IC50 (MV4-11 cells) [nM] | IC50 (BRD4 BD1) [nM] | IC50 (BRD4 BD2) [nM] |
| --- | --- | --- | --- |
| CC(=O)N1c2ccc(-c3cnn(C4CC4)c3)cc2N(C(=O)Oc2cccc3ccccc23)C[C@@H]1C [Example I-265] | > 500 | 1000 to 10000 | < 50 |
| CC(=O)N1c2ccc(-c3ccc(S(=O)(=O)N4CCC4)cc3)cc2N(C(=O)c2ccco2)C[C@@H]1C [Example I-289] | 100 to 500 | 100 to 1000 | < 50 |
| CC(=O)N1c2ccc(-c3ccc(C(=O)NCCO)cc3)cc2N(C(=O)c2ccco2)C[C@@H]1C [Example I-290] | 100 to 500 | 1000 to 10000 | < 50 |
| CC(=O)N1c2ccc(-c3ccc(S(=O)(=O)C4CC4)cc3)cc2N(C(=O)c2ccco2)C[C@@H]1C [Example I-291] | 100 to 500 | 100 to 1000 | < 50 |
| CC(=O)N1c2ccc(-c3ccc(C(=O)NC4CC4)cc3)cc2N(C(=O)c2ccco2)C[C@@H]1C [Example I-292] | 100 to 500 | 1000 to 10000 | > 500 |
| CC(=O)N1c2ccc(-c3ccc(S(=O)(=O)NCCO)cc3)cc2N(C(=O)c2ccco2)C[C@@H]1C [Example I-293] | 100 to 500 | 1000 to 10000 | < 50 |
| CC(=O)N1c2ccc(-c3ccc(S(C)(=O)=O)cc3)cc2N(C(=O)OC(C)C)C[C@@H]1C [Example I-294] | 100 to 500 | 100 to 1000 | < 50 |
| CC(=O)N1c2ccc(-c3ccc(N)nc3)cc2N(C(=O)c2ccco2)C[C@@H]1C [Example I-295] | 100 to 500 | 1000 to 10000 | < 50 |
| CC(=O)N1c2ccc(-c3ccc4c(c3)CCN4S(C)(=O)=O)cc2N(C(=O)c2ccco2)C[C@@H]1C [Example I-299] | 100 to 500 | 100 to 1000 | 50 to 500 |
| CC(=O)N1c2ccc(-c3cnn(CCS(C)(=O)=O)c3)cc2N(C(=O)OC(C)C)C[C@@H]1C [Example I-303] | 100 to 500 | < 100 | 50 to 500 |
| CC(=O)N1c2ccc(-c3cnn(CC(N)=O)c3)cc2N(C(=O)OC(C)C)C[C@@H]1C [Example I-304] | 100 to 500 | 100 to 1000 | 50 to 500 |
| CC(=O)N1c2ccc(-c3cnn(CC(=O)N(C)C)c3)cc2N(C(=O)OC(C)C)C[C@@H]1C [Example I-305] | 100 to 500 | 100 to 1000 | 50 to 500 |
| CC(=O)N1c2ccc(-c3cnn(CCN4CCOCC4)c3)cc2N(C(=O)OC(C)C)C[C@@H]1C [Example I-306] | 100 to 500 | 100 to 1000 | 50 to 500 |
| CC(=O)N1c2ccc(-c3cnn(C4CCOCC4)c3)cc2N(C(=O)OC(C)C)C[C@@H]1C [Example I-307] | 100 to 500 | 100 to 1000 | 50 to 500 |
| CC(=O)N1c2ccc(-c3cnn(CC4CC4)c3)cc2N(C(=O)OC(C)C)C[C@@H]1C [Example I-308] | 100 to 500 | 100 to 1000 | 50 to 500 |
| CC(C)OC(=O)N1C[C@H](C)N(C(=O)C2CC2)c2ccc(-c3cnn(CCS(C)(=O)=O)c3)cc21 [Example I-309] | > 500 | 100 to 1000 | 50 to 500 |
| CC(C)OC(=O)N1C[C@H](C)N(C(=O)C2CC2)c2ccc(-c3cnn(CC(N)=O)c3)cc21 [Example I-310] | > 500 | 100 to 1000 | 50 to 500 |
| CC(C)OC(=O)N1C[C@H](C)N(C(=O)C2CC2)c2ccc(-c3cnn(CCN4CCOCC4)c3)cc21 [Example I-312] | 100 to 500 | 100 to 1000 | 50 to 500 |
| CC(C)OC(=O)N1C[C@H](C)N(C(=O)C2CC2)c2ccc(-c3cnn(C4CCOCC4)c3)cc21 [Example I-313] | 100 to 500 | 100 to 1000 | 50 to 500 |
| COCCn1cc(-c2ccc3c(c2)N(C(=O)OC(C)C)C[C@H](C)N3C(=O)C2CC2)cn1 [Example I-314] | 100 to 500 | 100 to 1000 | 50 to 500 |
| CC(C)OC(=O)N1C[C@H](C)N(C(=O)C2CC2)c2ccc(-c3cnn(CCO)c3)cc21 [Example I-315] | 100 to 500 | 100 to 1000 | 50 to 500 |
| CC(C)OC(=O)N1C[C@H](C)N(C(=O)C2CC2)c2ccc(-c3cnn(CC4CC4)c3)cc21 [Example I-316] | 100 to 500 | 100 to 1000 | 50 to 500 |
| CC(C)OC(=O)N1C[C@H](C)N(C(=O)C2CC2)c2ccc(-c3cnn(C4COC4)c3)cc21 [Example I-317] | 100 to 500 | 100 to 1000 | 50 to 500 |
| COC(=O)N1c2ccc(-c3cnn(CCS(C)(=O)=O)c3)cc2N(C(=O)OC(C)C)C[C@@H]1C [Example I-318] | > 500 | 100 to 1000 | 50 to 500 |
| COC(=O)N1c2ccc(-c3cnn(CC(N)=O)c3)cc2N(C(=O)OC(C)C)C[C@@H]1C [Example I-319] | > 500 | 100 to 1000 | 50 to 500 |
| COC(=O)N1c2ccc(-c3cnn(CC(=O)N(C)C)c3)cc2N(C(=O)OC(C)C)C[C@@H]1C [Example I-320] | > 500 | 100 to 1000 | 50 to 500 |

Results, then the compound that gave them:

| IC50 (MV4-11 cells) [nM] | IC50 (BRD4 BD1) [nM] | IC50 (BRD4 BD2) [nM] | SMILES |
| --- | --- | --- | --- |
| 100 to 500 | 100 to 1000 | < 50 | CC(=O)N1c2ccc(-c3cnn(C4CC4)c3)cc2N(C(=O)Oc2ccc(F)cc2)C[C@@H]1C [Example I-261] |
| 100 to 500 | 100 to 1000 | < 50 | COC(=O)c1ccc(OC(=O)N2C[C@H](C)N(C(C)=O)c3ccc(-c4cnn(C5CC5)c4)cc32)cc1 [Example I-262] |
| 100 to 500 | 100 to 1000 | < 50 | COc1ccc(OC(=O)N2C[C@H](C)N(C(C)=O)c3ccc(-c4cnn(C5CC5)c4)cc32)cc1 [Example I-263] |
| < 100 | 100 to 1000 | < 50 | CC(=O)N1c2ccc(-c3cnn(C4CC4)c3)cc2N(C(=O)Oc2ccc(C)cc2)C[C@@H]1C [Example I-264] |
| 100 to 500 | 100 to 1000 | < 50 | CC(=O)N1c2ccc(-c3cnn(C4CC4)c3)cc2N(C(=O)Oc2ccc(F)c(C)c2)C[C@@H]1C [Example I-266] |
| 100 to 500 | 100 to 1000 | < 50 | CC(=O)N1c2ccc(-c3cnn(C4CC4)c3)cc2N(C(=O)Oc2ccc(Cl)cc2C)C[C@@H]1C [Example I-267] |
| < 100 | 100 to 1000 | < 50 | CC(=O)N1c2ccc(-c3ccc(S(=O)(=O)NC4CC4)cc3)cc2N(C(=O)c2ccco2)C[C@@H]1C [Example I-268] |
| 100 to 500 | 100 to 1000 | < 50 | CCCn1cc(-c2ccc3c(c2)N(C(=O)c2ccco2)C[C@H](C)N3C(C)=O)cn1 [Example I-269] |
| 100 to 500 | 1000 to 10000 | < 50 | CC(=O)N1c2ccc(-c3ccc(S(=O)(=O)NC(C)C)cc3)cc2N(C(=O)c2ccco2)C[C@@H]1C [Example I-274] |
| 100 to 500 | 1000 to 10000 | 50 to 500 | CC(=O)N1c2ccc(-c3ccc(S(=O)(=O)N4CCOCC4)cc3)cc2N(C(=O)c2ccco2)C[C@@H]1C [Example I-275] |
| < 100 | 1000 to 10000 | < 50 | CC(=O)N1c2ccc(-c3ccc(OCCN(C)C)cc3)cc2N(C(=O)c2ccco2)C[C@@H]1C [Example I-276] |
| 100 to 500 | 1000 to 10000 | < 50 | CC(=O)N1c2ccc(-c3ccc(S(=O)(=O)N(C)C)cc3)cc2N(C(=O)c2ccco2)C[C@@H]1C [Example I-277] |
| 100 to 500 | 1000 to 10000 | < 50 | CC(=O)N1c2ccc(-c3ccc(S(=O)(=O)N4CCN(C)CC4)cc3)cc2N(C(=O)c2ccco2)C[C@@H]1C [Example I-278] |
| < 100 | 100 to 1000 | < 50 | CC(=O)N1c2ccc(-c3ccc(NS(C)(=O)=O)cc3)cc2N(C(=O)c2ccco2)C[C@@H]1C [Example I-279] |
| 100 to 500 | 1000 to 10000 | < 50 | CC(=O)N1c2ccc(-c3ccc(NC(N)=O)cc3)cc2N(C(=O)c2ccco2)C[C@@H]1C [Example I-280] |
| 100 to 500 | 1000 to 10000 | < 50 | CC(=O)N1c2ccc(-c3ccc(S(N)(=O)=O)cc3)cc2N(C(=O)c2ccco2)C[C@@H]1C [Example I-281] |
| 100 to 500 | 1000 to 10000 | < 50 | CC(=O)N1c2ccc(-c3ccc(C(=O)N4CCCC4)cc3)cc2N(C(=O)c2ccco2)C[C@@H]1C [Example I-282] |
| 100 to 500 | 1000 to 10000 | < 50 | CC(=O)N1c2ccc(-c3ccc(C(=O)N4CCOCC4)cc3)cc2N(C(=O)c2ccco2)C[C@@H]1C [Example I-283] |
| 100 to 500 | 1000 to 10000 | < 50 | CC(=O)N1c2ccc(-c3ccc(NC(=O)N(C)C)cc3)cc2N(C(=O)c2ccco2)C[C@@H]1C [Example I-284] |
| 100 to 500 | 1000 to 10000 | < 50 | CC(=O)N1c2ccc(-c3ccc(NC(=O)N4CCOCC4)cc3)cc2N(C(=O)c2ccco2)C[C@@H]1C [Example I-285] |
| < 100 | 100 to 1000 | > 500 | CC(=O)N1c2ccc(-c3ccc(S(=O)(=O)N4CCCC4)cc3)cc2N(C(=O)c2ccco2)C[C@@H]1C [Example I-286] |
| < 100 | 100 to 1000 | < 50 | CC(=O)N1c2ccc(-c3ccc(NS(=O)(=O)C4CC4)cc3)cc2N(C(=O)c2ccco2)C[C@@H]1C [Example I-287] |
| 100 to 500 | 1000 to 10000 | < 50 | CC(=O)N1c2ccc(-c3ccc(S(=O)(=O)C(C)C)cc3)cc2N(C(=O)c2ccco2)C[C@@H]1C [Example I-288] |
